# Values of other authors as cited in patent US20180185454A1, “AGENT FOR PREVENTING ONSET OF IDIOPATHIC OSTEONECROSIS OF FEMORAL HEAD AND/OR SUPPRESSING PROGRESS OF SAME” (ASAHI KASEI PHARMA CORPORATION, priority 2015, published 2018).
# Where two headings read alike, the source gives them in different places.
# How the values were obtained:
# [1] = test system: osteonecrosis of the jawbone; conditions: induced by bisphosphonates and denosumab
# [2] = test system: ION; conditions: vs alendronate control; no statistical superiority between the two groups; dosage not disclosed
# [3] = test system: bone formation markers
smiles,measurement,setting,value
CC[C@H](C)[C@H](NC(=O)[C@H](CCC(=O)O)NC(=O)[C@H](CO)NC(=O)[C@@H](NC(=O)[C@@H](N)CO)C(C)C)C(=O)N[C@@H](CCC(N)=O)C(=O)N[C@@H](CC(C)C)C(=O)N[C@@H](CCSC)C(=O)N[C@@H](Cc1cnc[nH]1)C(=O)N[C@@H](CC(N)=O)C(=O)N[C@@H](CC(C)C)C(=O)NCC(=O)N[C@@H](CCCCN)C(=O)N[C@@H](Cc1cnc[nH]1)C(=O)N[C@@H](CC(C)C)C(=O)N[C@@H](CC(N)=O)C(=O)N[C@@H](CO)C(=O)N[C@@H](CCSC)C(=O)N[C@@H](CCC(=O)O)C(=O)N[C@@H](CCCN=C(N)N)C(=O)N[C@H](C(=O)N[C@@H](CCC(=O)O)C(=O)N[C@@H](Cc1c[nH]c2ccccc12)C(=O)N[C@@H](CC(C)C)C(=O)N[C@@H](CCCN=C(N)N)C(=O)N[C@@H](CCCCN)C(=O)N[C@@H](CCCCN)C(=O)N[C@@H](CC(C)C)C(=O)N[C@@H](CCC(N)=O)C(=O)N[C@@H](CC(=O)O)C(=O)N[C@H](C(=O)N[C@@H](Cc1cnc[nH]1)C(=O)N[C@@H](CC(N)=O)C(=O)N[C@@H](Cc1ccccc1)C(=O)O)C(C)C)C(C)C [teriparatide],effect against osteonecrosis of the jawbone,[1],have an effect
same,"femoral head collapse progress (difference in collapse values before and after administration, simple x-ray frontal views)",[2],tended to suppress femoral head collapse progress in comparison to alendronate
same,effect on bone formation markers,[3]; 20 μg daily formulation,markedly increases
same,effect on bone formation markers,[3]; 56.5 μg once-a-week formulation,only slightly
